Measurements as given in article PMC6895180 (Nature Communications, 2019).
Values joined by “and” are separate entries in the source; they are usually repeats but may differ in a detail not shown here. Equal entries are not always repeated.

Assays:
[1] = system: T. b. brucei AnTAR1.1 PPYRE9; test: Mouse model of stage 2 HAT (BLI, parasitaemia, SL-RNA qPCR); assay type: in vivo; settings: for BLI of the head region, RLU data: individual animals
Experimental: […] Treatment was initiated at 21 dpi. […] Mice were injected i.p. with […] of D-luciferin and anaesthetised using isoflurane. The luminescent signal was acquired from both the dorsal and ventral side of the animals. […] Animals subjected to the different treatment schemes (from 4 wpi) were additionally imaged over a 5 min exposure time for enhanced sensitivity. […] Tissues were weighed and RNA was extracted using the RNeasy Plus Mini Kit (Qiagen) according to the manufacturer’s recommendations. […] A list of primers used is provided in the Supplementary Methods section of the Supplementary Information. BLI images from the IVIS Spectrum In Vivo Imaging System (Perkin Elmer) were analysed using LivingImage v4.3.1. SoftWoRx suite 2.0 for microscopy (image deconvolution), then processing using the Fiji software.

[2] = system: bloodstream form T. brucei 427WT; test: Wash-out experiments with T. brucei; assay type: cell-based, Trypanosoma brucei
Experimental: Wash-out experiments with T. brucei
A culture of bloodstream form T. brucei 427WT, at mid-log phase of growth, was harvested and resuspended at a density of 10^5 cells mL-1, in fresh medium containing either no test compound, or […]
The cultures were incubated under standard conditions (37 °C/5% CO2) and cell counts were performed manually using a haemocytometer under phase contrast microscopy, every 24 h. The culture in continuous presence of analogue 9 was split in two at 8 h and 48 h (as indicated with arrows in Supplementary Figure S2). The split cultures were centrifuged and resuspended in the same volume of either fresh medium without test compound or fresh medium with the same concentration of compound 9 as before, reincubated. The detection limit for the manual cell count was 10^4 cells mL-1. […]

T. brucei NY-SM cells = test: Cell cycle analysis by flow cytometry; assay type: cell-based, Trypanosoma brucei
Experimental: After 24 h, the cells were harvested and washed with PBS before staining with Hoechst 33342 at 5 µg mL^−1 for 25 min at 37 °C. Cells were analysed on a MACSQuant flow cytometer (Miltenyi Biotec) using the FlowJo X software package.

[3] = oral 6.25 mg kg^−1 s.i.d. for 5 days
[4] = oral 12.5 mg kg^−1 s.i.d. for 5 days
[5] = oral 25 mg kg^−1 s.i.d. for 5 days

## Nc1ncnc2c1ccn2[C@@H]1O[C@H](CO)C[C@H]1O [Compound 9, 3’-deoxytubercidin]
[1]; 6.25 mg/kg SID, 3 wpi
  RLU data, individual mice: 1622000 RLU and 3182000 RLU and 2182000 RLU
[1]; 6.25 mg/kg SID, 4 wpi
  RLU data, individual mice: 193100 RLU and 167700 RLU and 117800 RLU
[1]; 6.25 mg/kg SID, 5 wpi
  RLU data, individual mice: 198100 RLU and 192400 RLU and 180700 RLU
[1]; 6.25 mg/kg SID, 6 wpi
  RLU data, individual mice: 97950 RLU and 93770 RLU and 90330 RLU
[1]; 6.25 mg/kg SID, 7 wpi
  RLU data, individual mice: 113500 RLU and 105600 RLU and 105900 RLU
[1]; 6.25 mg/kg SID, 8 wpi
  RLU data, individual mice: 131900 RLU and 113000 RLU and 102800 RLU
[1]; 6.25 mg/kg SID, 9 wpi
  RLU data, individual mice: 108500 RLU and 102400 RLU and 89250 RLU
[1]; 6.25 mg/kg SID, 11 wpi
  RLU data, individual mice: 85510 RLU and 79310 RLU and 77130 RLU
[1]; 6.25 mg/kg SID, 12 wpi
  RLU data, individual mice: 86540 RLU and 80590 RLU and 72940 RLU
[1]; 6.25 mg/kg SID, 14 wpi
  RLU data, individual mice: 72880 RLU and 70430 RLU and 75490 RLU
[1]; 12.5 mg/kg SID, 3 wpi
  RLU data, individual mice: 11680000 RLU and 7405000 RLU
[1]; 12.5 mg/kg SID, 4 wpi
  RLU data, individual mice: 129800 RLU and 121500 RLU
[1]; 12.5 mg/kg SID, 5 wpi
  RLU data, individual mice: 117000 RLU and 123200 RLU
[1]; 12.5 mg/kg SID, 6 wpi
  RLU data, individual mice: 100200 RLU and 88860 RLU
[1]; 12.5 mg/kg SID, 7 wpi
  RLU data, individual mice: 107000 RLU and 110100 RLU
[1]; 12.5 mg/kg SID, 8 wpi
  RLU data, individual mice: 112000 RLU and 128000 RLU
[1]; 12.5 mg/kg SID, 9 wpi
  RLU data, individual mice: 99900 RLU and 94080 RLU
[1]; 12.5 mg/kg SID, 11 wpi
  RLU data, individual mice: 77540 RLU and 81340 RLU
[1]; 12.5 mg/kg SID, 12 wpi
  RLU data, individual mice: 79330 RLU and 83380 RLU
[1]; 12.5 mg/kg SID, 14 wpi
  RLU data, individual mice: 72090 RLU and 77840 RLU
[1]; 25 mg/kg BID, 3 wpi
  RLU data, individual mice: 4672000 RLU and 30200000 RLU
[1]; 25 mg/kg BID, 4 wpi
  RLU data, individual mice: 134400 RLU and 112900 RLU
[1]; 25 mg/kg BID, 5 wpi
  RLU data, individual mice: 112900 RLU and 115900 RLU
[1]; 25 mg/kg BID, 6 wpi
  RLU data, individual mice: 102800 RLU and 99010 RLU
[1]; 25 mg/kg BID, 7 wpi
  RLU data, individual mice: 102400 RLU and 91660 RLU
[1]; 25 mg/kg BID, 8 wpi
  RLU data, individual mice: 110100 RLU and 102600 RLU
[1]; 25 mg/kg BID, 9 wpi
  RLU data, individual mice: 102800 RLU and 96280 RLU
[1]; 25 mg/kg BID, 11 wpi
  RLU data, individual mice: 72280 RLU and 73020 RLU
[1]; 25 mg/kg BID, 12 wpi
  RLU data, individual mice: 82420 RLU and 78930 RLU
[1]; 25 mg/kg BID, 14 wpi
  RLU data, individual mice: 77680 RLU and 76600 RLU
[1]; 25 mg/kg SID, 3 wpi
  RLU data, individual mice: 2495000 RLU and 617400 RLU and 13720000 RLU
[1]; 25 mg/kg SID, 4 wpi
  RLU data, individual mice: 173900 RLU and 151500 RLU and 120200 RLU
[1]; 25 mg/kg SID, 5 wpi
  RLU data, individual mice: 135900 RLU and 123400 RLU and 110100 RLU
[1]; 25 mg/kg SID, 6 wpi
  RLU data, individual mice: 109500 RLU and 97640 RLU and 94120 RLU
[1]; 25 mg/kg SID, 7 wpi
  RLU data, individual mice: 98810 RLU and 105800 RLU and 87010 RLU
[1]; 25 mg/kg SID, 8 wpi
  RLU data, individual mice: 114800 RLU and 132100 RLU and 110100 RLU
[1]; 25 mg/kg SID, 9 wpi
  RLU data, individual mice: 104700 RLU and 110500 RLU and 91280 RLU
[1]; 25 mg/kg SID, 11 wpi
  RLU data, individual mice: 73650 RLU and 88470 RLU and 81640 RLU
[1]; 25 mg/kg SID, 12 wpi
  RLU data, individual mice: 90290 RLU and 88590 RLU and 87820 RLU
[1]; 25 mg/kg SID, 14 wpi
  RLU data, individual mice: 78620 RLU and 86010 RLU and 72810 RLU
[1]; 3 wpi (start of treatment, 21 dpi)
  BLI of the head region, RLU data: 48700000 RLU and 33400000 RLU
[1]; 4 wpi
  BLI of the head region, RLU data: 98400 RLU and 114000 RLU
[1]; 5 wpi
  BLI of the head region, RLU data: 100000 RLU and 105000 RLU
[1]; 6 wpi
  BLI of the head region, RLU data: 109000 RLU and 110000 RLU
[1]; 7 wpi
  BLI of the head region, RLU data: 99500 RLU and 92000 RLU
[1]; 8 wpi
  BLI of the head region, RLU data: 107000 RLU and 96700 RLU
[1]; 9 wpi
  BLI of the head region, RLU data: 90800 RLU and 104000 RLU
[1]; mouse, in vivo
  BLI follow-up of surviving mice up to 14 wpi: did not reveal any signs of relapse
[1]; [3]
  bioluminescent imaging (BLI): total clearance in all organs including the CNS
  blood parasitaemia up to 9 wpi: negative blood parasitaemia
[1]; [4]
  bioluminescent imaging (BLI): total clearance in all organs including the CNS
  blood parasitaemia up to 9 wpi: negative blood parasitaemia
[1]; oral 25 mg kg^−1 b.i.d. for 5 days
  bioluminescent imaging (BLI): total clearance of all organs, including the CNS
[1]; oral 25 mg kg^−1 b.i.d. for 5 days from 21 dpi
  blood parasitaemia and survival at 9 wpi: negative blood parasitaemia and survived the pre-set endpoint
[1]; [5]
  bioluminescent imaging (BLI): total clearance in all organs including the CNS
  blood parasitaemia up to 9 wpi: negative blood parasitaemia
[1]; tissues collected at 121 dpi
  parasite burdens in brain, spleen and fat by SL-RNA qPCR: complete absence of parasite burdens
[1]; to levels similar to a non-infected control mouse
  luminescent signal in the head region: rapid decline of the signal
[2]; 0.500 µM, 48 h of exposure and subsequent removal, up to 120 h
  parasites recovered after wash-out: no parasites were recovered
[2]; Exp. 1, 0.165 µM, 8 h wash, 8 h
  Manual cell count: 60000 cells mL-1
[2]; Exp. 1, 0.165 µM, 8 h wash, 24 h
  Manual cell count: 10000 cells mL-1
[2]; Exp. 1, 0.165 µM, 8 h wash, 48 h
  Manual cell count: 40000 cells mL-1
[2]; Exp. 1, 0.165 µM, 8 h wash, 72 h
  Manual cell count: 600000 cells mL-1
[2]; Exp. 1, 0.165 µM, 8 h wash, 96 h
  Manual cell count: 3800000 cells mL-1
[2]; Exp. 1, 0.165 µM, 8 h wash, 120 h
  Manual cell count: 1300000 cells mL-1
[2]; Exp. 1, 0.165 µM, 48 h wash, 72 h
  Manual cell count: 20000 cells mL-1
[2]; Exp. 1, 0.165 µM, 48 h wash, 96 h
  Manual cell count: 40000 cells mL-1
[2]; Exp. 1, 0.165 µM, 48 h wash, 120 h
  Manual cell count: 280000 cells mL-1
[2]; Exp. 1, 0.165 µM, Continuous, 8 h
  Manual cell count: 120000 cells mL-1
[2]; Exp. 1, 0.165 µM, Continuous, 96 h
  Manual cell count: 10000 cells mL-1
[2]; Exp. 1, 0.165 µM, Continuous, 120 h
  Manual cell count: 30000 cells mL-1
[2]; Exp. 2, 0.500 µM, 8 h wash, 8 h
  Manual cell count: 55000 cells mL-1
[2]; Exp. 2, 0.500 µM, 8 h wash, 24 h
  Manual cell count: 10000 cells mL-1
[2]; Exp. 2, 0.500 µM, 8 h wash, 48 h
  Manual cell count: 10000 cells mL-1
[2]; Exp. 2, 0.500 µM, 8 h wash, 72 h
  Manual cell count: 10000 cells mL-1
[2]; Exp. 2, 0.500 µM, 8 h wash, 96 h
  Manual cell count: 30000 cells mL-1
[2]; Exp. 2, 0.500 µM, 8 h wash, 120 h
  Manual cell count: 430000 cells mL-1
[2]; Exp. 2, 0.500 µM, Continuous, 8 h
  Manual cell count: 110000 cells mL-1
T. brucei NY-SM cells; 1.4 nM
  # cells 2N: 18946 and 19862
  # cells 4N: 4825 and 4846
  # cells S: 16441 and 16011
  % of cells 2N: 44.3% and 46.2%
  % of cells 4N: 11.3%
  % of cells S: 38.5% and 37.2%
T. brucei NY-SM cells; 3.5 nM
  # cells 2N: 19884 and 19251
  # cells 4N: 4669 and 4555
  # cells S: 15056 and 15140
  % of cells 2N: 47.3% and 46.7%
  % of cells 4N: 11.1%
  % of cells S: 35.9% and 36.8%
T. brucei NY-SM cells; 7 nM
  # cells 2N: 18100 and 17699
  # cells 4N: 3787 and 3626
  # cells S: 10717 and 10604
  % of cells 2N: 51.1% and 50%
  % of cells 4N: 10.7% and 10.2%
  % of cells S: 30.2% and 29.9%
T. brucei NY-SM cells; 24 h, various concentrations
  cell cycle analysis: impact on DNA synthesis: no major impact on DNA synthesis
